Marks after values point to notes of the source that are not given here.
Tests used:
[1] = tested on: cGMP; assay: Parotid saliva cGMP before and after oral theophylline (Example 2); type: in vivo, human; settings: mean ± SEM
Method: Parotid saliva was collected from each patient by application of a Lashley cup over Stensen's duct with lingual stimulation by placement of concentrated lemon juice. Saliva was collected in plastic tubes and stored at −20° C. until assayed. cAMP and cGMP were measured in saliva by a sensitive 96 plate spectrophotometric assay (R&D Systems, Minneapolis, Minn.).
(§1) All patients were placed in a fixed design open label clinical trial with treatment with oral theophylline. Treatment consisted of fixed treatment periods of two-eight months with sequential doses of the drug at 200 mg, 400 mg and 600 mg. At termination of each of these intervals, patients returned to study site for reevaluation. At the end of each interval subjective responses to treatment were measured with a modification of the 0-100 scale previously used (vs). Subjective responses to treatment were graded on a sliding scale from −100-0-+100 with patients recording improvement (+0-+100), no improvement (0) or worsening (0-−100) of their overall smell function. If overall smell function improved ≥5% they were considered to improve clinically (1). If smell function improved <5% they were considered not to improve (1). At the end of each interval subjective measurements of smell function, measurements of DT, RT, ME and H and measurements of parotid saliva for levels of cAMP and cGMP were obtained. In addition, blood plasma was obtained by venipuncture, placed in ice into zinc free tubes which contained 100 mg zinc free heparin, centrifuged at 3000 rpm for 10-20 min, the plasma transferred to plastic PCR tubes and stored at −20° C. until assayed. Theophylline was assayed by a fluorescence polarization assay (Abbott, Chicago, Ill.), as previously described.
(§2) Data for the cyclic nucleotides from these 31 patients was not analyzed until the entire study of the 312 patients in Example 1 was assembled and analyzed in its entirety. After completion of these analyses, all data for parotid saliva cAMP and cGMP from all patients in whom salivary cAMP and cGMP were obtained were assembled. Levels of salivary cyclic nucleotides varied widely. Initially, without external criteria, there was no way to understand these disparate data. […] In a similar manner, measurements of each patient's plasma theophylline level at each dosage of theophylline (at 200 mg, 400 mg, 600 mg of theophylline) were categorized. The two patient groups were also analyzed post hoc with respect to type of smell loss and etiology of smell loss.

[2] = asthma and COPD; cited from earlier work
[3] = tested on: patients with hyposmia and hypogeusia; settings: oral 200 to 800 mg/d
Method: (§3) Smell and taste functions under each study condition were measured by standardized psychophysical sensory testing techniques. Measurements included determination of detection thresholds (DTs), recognition thresholds (RTs), magnitude estimation (ME), and hedonic response (HR) for 4 odors (e.g., pyridine [dead fish], nitrobenzene [bitter almond], thiophene [petroleum], and amyl acetate [banana oil]) (olfactometry) and for 4 tastants (e.g., sodium chloride [salt], sucrose [sweet], hydrochloride [sour], and urea [bitter]) (gustometry). […] Each measurement was performed independent of any prior knowledge of response.
(§4) Values for the oral trial were taken from the last measurements made before discontinuation of oral drug treatment and before initiation of the intranasal trial. This period varied from 2 to 12 months after oral treatment initiation and reflected the maximal improvement in sensory function each patient experienced.
(§5) The mean and standard error of the mean for all values obtained at each study condition were compared. Differences were considered significant if P<0.05 by the unpaired t test. Paired comparison tests were also used with differences considered significant if P<0.05 by the t test.

[4] = tested on: patients with hyposmia and hypogeusia; settings: oral 200 to 800 mg/d; remark: listed apart in the source
Method: as §3, §4, §5

[5] = tested on: patients with hyposmia; assay: Classification of patients as improved or unimproved on theophylline (Example 2); type: in vivo, human
Method: as §1, §2
Differences in the characteristics between these two patient groups were analyzed with respect to each measurement obtained (Mean±SEM). Differences between mean±SEM were analyzed using Student t test and X2; differences of p≤5% were considered significant.

[6] = tested on: patients with hyposmia; assay: Side effects of oral theophylline (Example 1); type: in vivo, human; settings: divided doses in middle of meals
Source text: Patients were required to take the drug in divided doses in middle of meals (breakfast and lunch).

[7] = of 31 patients on oral theophylline 200-600 mg

Cn1c(=O)c2[nH]cnc2n(C)c1=O [theophylline]
parotid saliva cGMP ([1]; patients with improved smell function, oral 200 mg (15 patients)): 0.08 ± 0.016 pmol/mL
parotid saliva cGMP ([1]; patients with unimproved smell function, oral 200 mg (9 patients)): 0.07 ± 0.018 pmol/mL
parotid saliva cGMP ([1]; patients with unimproved smell function, oral 400 mg (4 patients)): 0.05 ± 0.014 pmol/mL
parotid saliva cGMP ([1]; patients with unimproved smell function, oral 600 mg (5 patients)): 0.04 ± 0.07 pmol/mL
concentrations at which anti-inflammatory effects are seen [2]: less than 10 mg/L
hyposmia (olfactometry overall) [3]: improved with 2 to 12 months of treatment
DTs and RTs for all odorants ([3]; 2 to 12 months): decreased (more sensitive)
HRs for all odorants ([3]; 2 to 12 months): increased
MEs for all odorants ([3]; 2 to 12 months): increased (more sensitive)
hypogeusia (gustometry overall) [4]: improved after 2 to 12 months of treatment
DTs for sucrose and hydrochloride and RTs for sodium chloride, hydrochloride and urea ([4]; 2 to 12 months): decreased (more sensitive)
HR for hydrochloride and urea ([4]; 2 to 12 months): increased (more unpleasant)
magnitude estimations for all tastants ([4]; 2 to 12 months): increased (more sensitive)
patients identified as having improved smell function [5, 7]: 20 patients
patients who did not improve [5, 7]: 11 patients
improved patients exhibiting Type II hyposmia ([5]; oral theophylline, Example 2): 95%
patient number, improved, etiology PIHH ([5]; oral theophylline, Example 2): 6
patient number, improved, etiology allergic rhinitis (AR) ([5]; oral theophylline, Example 2): 8
patient number, improved, etiology head injury (HI) ([5]; oral theophylline, Example 2): 3
patient number, improved, etiology other ([5]; oral theophylline, Example 2): 3
patient number, improved, smell loss Type I ([5]; oral theophylline, Example 2): 1
patient number, improved, smell loss Type II ([5]; oral theophylline, Example 2): 19^a
patient number, unimproved, etiology PIHH ([5]; oral theophylline, Example 2): 0
patient number, unimproved, etiology allergic rhinitis (AR) ([5]; oral theophylline, Example 2): 8
patient number, unimproved, etiology head injury (HI) ([5]; oral theophylline, Example 2): 3
patient number, unimproved, etiology other ([5]; oral theophylline, Example 2): 0
patient number, unimproved, smell loss Type I ([5]; oral theophylline, Example 2): 4
patient number, unimproved, smell loss Type II ([5]; oral theophylline, Example 2): 7
unimproved patients exhibiting Type I hyposmia ([5]; oral theophylline, Example 2): 57%
side effects among patients [6]: generally minimal

Source: patent US20190231785A1, “PHOSPHODIESTERASE INHIBITOR TREATMENT” (Cyrano Therapeutics, Inc., priority 2012, published 2019)
